Reference: the NIST ThermoML archive (doi:10.1016/j.jct.2015.09.029)
± gives the expanded uncertainty stated by the source.

Assay: mn = molality of the nth substance listed, in mol/kg
Settings: 100 kPa, Liquid; for viscosity: Capillary tube (Ostwald / Ubbelohde) method; for speed of sound: Frequency=2 MHz, Linear variable-path acoustic interferometer; for mass density: Vibrating tube method

CC(C)C[P+](C)(CC(C)C)CC(C)C.Cc1ccc(S(=O)(=O)[O-])cc1 [triisobutylmethylphosphonium p-toluenesulfonate] + O
Settings	mass density, 298.15 K [kg/m3]	mass density, 303.15 K [kg/m3]	speed of sound, 298.15 K [m/s]	speed of sound, 303.15 K [m/s]	viscosity, 298.15 K [mPa·s]	viscosity, 303.15 K [mPa·s]
m1 = 0.0237	997.74 ± 0.11	996.31 ± 0.11	1507.2 ± 4.3	1518.8 ± 4.3	0.9191 ± 0.019	0.8224 ± 0.017
m1 = 0.0468	998.42 ± 0.11	996.97 ± 0.11	1513.7 ± 4.3	1525.3 ± 4.3	0.9471 ± 0.02	0.8466 ± 0.018
m1 = 0.0663	999 ± 0.11	997.53 ± 0.11	1518.8 ± 4.3	1530.8 ± 4.3	0.9707 ± 0.02	0.8669 ± 0.018
m1 = 0.0901	999.7 ± 0.11	998.21 ± 0.11	1524.8 ± 4.3	1536.6 ± 4.3	0.9996 ± 0.021	0.8919 ± 0.019
m1 = 0.1848	1002.5 ± 0.12	1000.89 ± 0.12	1546.4 ± 4.3	1555.9 ± 4.3	1.115 ± 0.023	0.9914 ± 0.021
m1 = 0.2883	1005.48 ± 0.14	1003.76 ± 0.14	1566.5 ± 4.3	1574.5 ± 4.3	1.241 ± 0.026	1.101 ± 0.023
m1 = 0.3948	1008.42 ± 0.17	1006.58 ± 0.17	1586.1 ± 4.3	1590.7 ± 4.3	1.373 ± 0.029	1.214 ± 0.026
m1 = 0.4278	1009.28 ± 0.18	1007.42 ± 0.18	1592.4 ± 4.3	1596.2 ± 4.3	1.413 ± 0.03	1.249 ± 0.027
m1 = 0.478	1010.56 ± 0.2	1008.64 ± 0.2	1601.7 ± 4.4	1604 ± 4.4	1.475 ± 0.031	1.302 ± 0.028
m1 = 0.5156	1011.48 ± 0.22	1009.52 ± 0.21	1608.3 ± 4.4	1609.4 ± 4.4	1.522 ± 0.032	1.343 ± 0.029
